Measured values as given in PMC3364120 (British Journal of Cancer, 2012).
Read-outs that look alike come from different tables or passages of the source.

What was measured:
OCT-1 [1] = target: T1, OCT-1 (Homo sapiens, UniProt O15245); test: OCT-1 activity; format: cell-based; conditions: K562; for change in OA / imatinib uptake via OCT-1: NSAID at concentration of Supplementary Table 1, 2 h
T1 sequence (O15245 1-554): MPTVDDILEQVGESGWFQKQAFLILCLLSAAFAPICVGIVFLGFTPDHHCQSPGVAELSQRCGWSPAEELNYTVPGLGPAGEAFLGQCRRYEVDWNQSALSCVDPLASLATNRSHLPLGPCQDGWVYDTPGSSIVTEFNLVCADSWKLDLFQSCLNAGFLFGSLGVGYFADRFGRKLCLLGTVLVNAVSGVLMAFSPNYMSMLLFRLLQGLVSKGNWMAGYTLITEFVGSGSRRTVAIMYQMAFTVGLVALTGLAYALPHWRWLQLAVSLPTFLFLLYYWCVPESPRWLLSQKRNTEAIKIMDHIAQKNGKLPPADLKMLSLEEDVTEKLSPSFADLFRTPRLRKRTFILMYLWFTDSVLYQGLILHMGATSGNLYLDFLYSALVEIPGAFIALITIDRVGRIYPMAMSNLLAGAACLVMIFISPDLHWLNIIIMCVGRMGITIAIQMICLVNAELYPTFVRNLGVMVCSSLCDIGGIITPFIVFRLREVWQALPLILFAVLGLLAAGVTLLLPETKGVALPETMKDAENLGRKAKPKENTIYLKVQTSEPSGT

OCT-1 [2] = target: T1, OCT-1; test: OCT-1 activity; format: cell-based; conditions: KU812
OCT-1 [3] = target: T1, OCT-1; test: OCT-1 activity; format: cell-based
OCT-1 [4] = target: T1, OCT-1; test: OCT-1 activity; format: cell-based; conditions: MNCs from normal individuals
K562 cells = test: Trypan blue exclusion assay, viable cell number, K562; format: cell-based, human; conditions: for number of viable cells: 72 hours
KU812 cells = test: Trypan blue exclusion assay, viable cell number, KU812; format: cell-based, human; conditions: for number of viable cells: 72 hours
OCT-1 mRNA [5] = test: RQ-PCR for OCT-1 mRNA levels, K562; format: cell-based, human; conditions: 2-hour incubation (data not shown)
OCT-1 mRNA [6] = test: RQ-PCR for OCT-1 mRNA levels, KU812; format: cell-based, human; conditions: 2-hour incubation (data not shown)
[7] = ref Siu et al, 2000; Juhlin et al, 2004; Bramlage and Goldis, 2008; cited from earlier work
hOCT-1 = conditions: 0.5 mM NSAID; transfected S2 cells expressing hOCT-1; ref Khamdang et al, 2002; cited from earlier work
[8] = test system: chronic myeloid leukaemia; conditions: 7-year update of IRIS; ref Hughes et al, 2010; cited from earlier work
[9] = test system: chronic myeloid leukaemia; conditions: imatinib 600 mg per day, ref White et al, 2007b, cited from earlier work

For `Cc1ccc(-c2cc(C(F)(F)F)nn2-c2ccc(S(N)(=O)=O)cc2)cc1` [celecoxib], the “change in OA / imatinib uptake via OCT-1” value (OCT-1 [1]) was “no significant impact” and the “change in imatinib uptake via OCT-1” value (OCT-1 [2]) was “no significant impact”.
With `O=C(O)Cc1ccccc1Nc1c(Cl)cccc1Cl` [diclofenac] the “cases moved from Q1 to a higher OA quartile group” value (OCT-1 [3]; 15 of 29 Q1 cases, 10 μM diclofenac) was 51.7%, the “percentage of Q1 patients' samples in which OA was increased” value (OCT-1 [3]; CML MNCs with basal OA <4 ng per 200 000 cells (Q1), n=29, 10 μM diclofenac) was 93% and the “median OA in the presence of diclofenac” value (OCT-1 [3]; patients with basal OA >4 ng per 200 000 cells, n=21, 10 μM diclofenac, 5.49 without, not significant (P=0.714)) was 5.92 ng per 200 000cells. For the same molecule, the “change in OA” value (OCT-1 [4]; n=10, diclofenac (data not shown)) was “did not result in a significant change”, the “number of viable cells” value (K562 cells; 10 μM diclofenac + […] imatinib) was 7.82±0.56 × 10^5 ml^−1 and the “change in cell viability” value (K562 cells; diclofenac alone, no imatinib) was “no significant change”. For the same molecule, the “number of viable cells” value (KU812 cells; 10 μM diclofenac + 0.05 μM imatinib) was 5.40±0.34 × 10^5 ml^−1, the “change in cell viability” value (KU812 cells; diclofenac alone, no imatinib) was “no significant change” and the “change in level of OCT-1 mRNA” value (OCT-1 mRNA [5]) was “no significant change”. The “change in level of OCT-1 mRNA” value (OCT-1 mRNA [6]) was “no significant change”, the “clinically achievable total plasma concentration” value [7] was 10 µM and the “effect on OCT-1-mediated TEA uptake” value (hOCT-1) was “significantly inhibit”.
With `CC(C)Cc1ccc(C(C)C(=O)O)cc1` (centres unmarked) [ibuprofen] the “OA, % of vehicle control” value (OCT-1 [1]; 145 μM ibuprofen, 2 h) was 48%, the “OA, % of vehicle control” value (OCT-1 [2]; 145 μM ibuprofen, 2 h) was 59% and the “reduction in OA” value (OCT-1 [3]; CP-CML MNCs, 12 cases, 145 μM ibuprofen) was 41%. The “range of OA after treatment” value (OCT-1 [3]; CP-CML MNCs, n=12, 145 μM ibuprofen) was 1.53–7.85 ng per 200 000 cells, the “average OA after treatment” value (OCT-1 [3]; CP-CML MNCs, n=12, 145 μM ibuprofen, 7.53±0.82 before) was 4.30±0.52 ng per 200 000 cells and the “decrease in OA” value (OCT-1 [4]; n=6, ibuprofen) was 50%. For the same molecule, the “range of OA post treatment” value (OCT-1 [4]; n=6, ibuprofen) was 1.41–2.82 ng per 200 000 cells, the OA post treatment (OCT-1 [4]; n=6, ibuprofen, 3.70±0.45 before) was 1.83±0.26 ng per 200 000 cells and the “number of viable cells” value (K562 cells; 145 μM ibuprofen + 0.5 μM imatinib) was 8.16±1.01 × 10^5 ml^−1. The “number of viable cells” value (KU812 cells; 145 μM ibuprofen + 0.1 μM imatinib) was 7.23±0.78 × 10^5 ml^−1, the “change in level of OCT-1 mRNA” value (OCT-1 mRNA [5]) was “no significant change” and the “change in level of OCT-1 mRNA” value (OCT-1 mRNA [6]) was “no significant change”. For the same molecule, the “effect on OCT-1-mediated TEA uptake” value (hOCT-1) was “significantly inhibit”.
With `Cc1ccc(NC(=O)c2ccc(CN3CCN(C)CC3)cc2)cc1Nc1nccc(-c2cccnc2)n1` [imatinib] the “number of viable cells” value (K562 cells; 0.5 μM imatinib alone) was 4.88±0.96 × 10^5 ml^−1, the “number of viable cells” value (KU812 cells; 0.05 μM imatinib alone) was 8.40±0.74 × 10^5 ml^−1 and the “number of viable cells” value (KU812 cells; 0.1 μM imatinib alone) was 4.97±0.47 × 10^5 ml^−1. The overall event-free survival [8] was 81%, the “transformation-free survival (to accelerated phase/blast crisis)” value [8] was 93% and the “percentage of patients achieving major molecular response (MMR) by 24 months” value ([9]; patients with high OA) was 85%. For the same molecule, the “percentage of patients achieving major molecular response (MMR) by 24 months” value ([9]; patients with low OA) was 45%.
In the case of `COc1ccc2c(c1)c(CC(=O)O)c(C)n2C(=O)c1ccc(Cl)cc1` [indomethacin], the “effect on OCT-1-mediated TEA uptake” value (hOCT-1) is listed as “significantly inhibit”.
For `CS(=O)(=O)c1ccc(C2=C(c3ccccc3)C(=O)OC2)cc1` [rofecoxib], the “change in OA / imatinib uptake via OCT-1” value (OCT-1 [1]) was “no significant impact” and the “change in imatinib uptake via OCT-1” value (OCT-1 [2]) was “no significant impact”.
In the case of `CC1=C(CC(=O)O)c2cc(F)ccc2/C1=C\c1ccc([S+](C)[O-])cc1` (centres unmarked) [sulindac], the “effect on OCT-1-mediated TEA uptake” value (hOCT-1) is given as “significantly inhibit”.
